Measurements reported in patent US9981907B2, “Low molecular weight cationic lipids for oligonucleotide delivery” (SIRNA THERAPEUTICS, INC., priority 2010, dated 2018).

What was measured:
[1] = Rat in vivo toxicity (survival after LNP dosing); settings: for Rats that failed to survive 48 hours: rats treated with 3 mg/kg
Procedure: Six hours post dose, food is removed from the cages. Animal necropsy is performed 24 hours after LNP dosing. Rats are anesthetized under isoflurane for 5 minutes, then maintained under anesthesia by placing them in nose cones continuing the delivery of isoflurane until ex-sanguination is completed. Blood is collected from the vena cava using a 23 gauge butterfly venipuncture set and aliquoted to serum separator vacutainers for serum chemistry analysis. Punches of the excised caudate liver lobe are taken and placed in RNALater (Ambion) for mRNA analysis. Preserved liver tissue was homogenized and total RNA isolated using a Qiagen bead mill and the Qiagen miRNA-Easy RNA isolation kit following the manufacturer's instructions. Liver ApoB mRNA levels were determined by quantitative RT-PCR. Message was amplified from purified RNA utilizing a rat ApoB commercial probe set (Applied Biosystems Cat #RN01499054_m1). The PCR reaction was performed on an ABI 7500 instrument with a 96-well Fast Block. The ApoB mRNA level is normalized to the housekeeping PPIB (NM 011149) mRNA. PPIB mRNA levels were determined by RT-PCR using a commercial probe set (Applied Biosystems Cat. No. Mm00478295_m1). Results are expressed as a ratio of ApoB mRNA/PPIB mRNA. All mRNA data is expressed relative to the PBS control dose. Serum ALT and AST analysis were performed on the Siemens Advia 1800 Clinical Chemistry Analyzer utilizing the Siemens alanine aminotransferase (Cat #03039631) and aspartate aminotransferase (Cat #03039631) reagents. […] 3 out of 4 rats treated with 6 mg/kg Compound 2 survived at 48 hours post dose.

[2] = system: mRNA transcript for the firefly (Photinus pyralis) luciferase gene; test: Mouse in vivo evaluation of efficacy (luciferase siRNA LNP/RDV, liver luminescence); settings: LSL-Luc transgenic mice, RDV with Luc siRNA tail vein injected, 0.1 to 0.5 mg/kg siRNA, imaged 48 hours post dose; compared with RDV containing octyl-CLinDMA (OCD); FIG. 1
Procedure: LNPs utilizing Compound 1, in the nominal compositions described immediately above, were evaluated for in vivo efficacy. The siRNA targets the mRNA transcript for the firefly (Photinus pyralis) luciferase gene (Accession #M15077). […] The in vivo luciferase model employs a transgenic mouse in which the firefly luciferase coding sequence is present in all cells. ROSA26-LoxP-Stop-LoxP-Luc (LSL-Luc) transgenic mice licensed from the Dana Farber Cancer Institute are induced to express the Luciferase gene by first removing the LSL sequence with a recombinant Ad-Cre virus (Vector Biolabs). Due to the organo-tropic nature of the virus, expression is limited to the liver when delivered via tail vein injection. Luciferase expression levels in liver are quantitated by measuring light output, using an IVIS imager (Xenogen) following administration of the luciferin substrate (Caliper Life Sciences). Pre-dose luminescence levels are measured prior to administration of the RDVs. Luciferin in PBS (15 mg/mL) is intraperitoneally (IP) injected in a volume of 150 μL. After a four minute incubation period mice are anesthetized with isoflurane and placed in the IVIS imager. The RDVs (containing siRNA) in PBS vehicle were tail vein injected n a volume of 0.2 mL. […] In vivo efficacy results are expressed as % inhibition of luminescence relative to pre-dose luminescence levels. […]

[3] = Determination of cationic lipid levels in rat liver (LC/MS-MS); type: in vivo; settings: rats dosed with RDV; compared with RDV containing DLinKC2DMA (Compound 4) or MC3 (Compound 3); FIG. 3
Procedure: Liver tissue was weighed into 20-ml vials and homogenized in 9 v/w of water using a GenoGrinder 2000 (OPS Diagnostics, 1600 strokes/min, 5 min). A 50 μL aliquot of each tissue homogenate was mixed with 300 μL of extraction/protein precipitating solvent (50/50 acetonitrile/methanol containing 500 nM internal standard) and the plate was centrifuged to sediment precipitated protein. A volume of 200 μL of each supernatant was then transferred to separate wells of a 96-well plate and 10 μl samples were directly analyzed by LC/MS-MS.
Standards were prepared by spiking known amounts of a methanol stock solution of compound into untreated rat liver homogenate (9 vol water/weight liver). Aliquots (50 μL) each standard/liver homogenate was mixed with 300 μL of extraction/protein precipitating solvent (50/50 acetonitrile/methanol containing 500 nM internal standard) and the plate was centrifuged to sediment precipitated protein. A volume of 200 μL of each supernatant was transferred to separate wells of a 96-well plate and 10 μl of each standard was directly analyzed by LC/MS-MS.
Absolute quantification versus standards prepared and extracted from liver homogenate was performed using an Aria LX-2 HPLC system (Thermo Scientific) coupled to an API 4000 triple quadrupole mass spectrometer (Applied Biosystems). […]

CCCCC/C=C\C/C=C\CCCCCCCCC1(CCCCCCCC/C=C\C/C=C\CCCCC)OCC(CCN(C)C)O1 (centres unmarked) [Compound 4, DLinKC2DMA]
Rats that failed to survive 48 hours [1]: 3 out of 4

CCCCC/C=C\C/C=C\CCCCCCCCCC(CCCCCCCCC)OC(=O)CCCN(C)C (centres unmarked) [Compound 1, (20Z,23Z)-nonacosa-20,23-dien-10-yl 4-(dimethylamino)butanoate]
In vivo efficacy, % inhibition of luminescence relative to pre-dose luminescence levels [2]: Greater efficacy

CCCCC/C=C\C/C=C\CCCCCCCCC(CCCCCCCC/C=C\C/C=C\CCCCC)OC(=O)CCCN(C)C [Compound 3, MC3]
Rats that failed to survive 48 hours [1]: 2 out of 4

CCCCCCCC/C=C\CCCCCCCC(CCCCCCCCC)OC(=O)CCCN(C)C (centres unmarked) [Compound 2, (18Z)-heptacos-18-en-10-yl 4-(dimethylamino)butanoate]
Rats survived at 48 hours post dose ([1]; female, Sprague-Dawley (Crl:CD(SD)), rat, in vivo, 6 mg/kg, 48 h): 3 out of 4
Cationic lipid liver levels [3]: lower
